We go through 15 compounds from ChEMBL document CHEMBL3632604, “Anti-inflammatory Inositol Derivatives from the Whole Plant of Inula cappa” (J Nat Prod, 2015).

Active and inactive are the calls of the source. No cut-off for these calls is given here.

The subject of assay [1] is RAW264.7. Nature of the assay: Antiinflammatory activity in mouse RAW264.7 cells assessed as inhibition of LPS-induced nitric oxide production at 10 uM preincubated for 30 mins followed by LPS stimulation measured after 24 hrs by Griess assay relative to control. Format: functional. On the technique in general: The Griess reaction detects nitrite, a stable product of nitric oxide.

Assay [2] concerns RAW264.7. Nature of the assay: Antiinflammatory activity in mouse RAW264.7 cells assessed as inhibition of LPS-induced nitric oxide production preincubated for 30 mins followed by LPS stimulation measured after 24 hrs by Griess assay. The format is functional, cell-based.

In general, inhibition refers to the change of the read-out against control, counted positive when it falls. For the compound `C/C=C(/C)C(=O)O[C@@H]1[C@@H](O)[C@H](O)[C@@H](OC(=O)/C(C)=C\C)[C@@H](OC(=O)/C(C)=C\C)[C@H]1O`, in the assay with RAW264.7 [1], the inhibition entry is “Active”.
Broadly, the IC50 is the concentration that gives 50% inhibition. On to `C/C=C(/C)C(=O)O[C@@H]1[C@@H](O)[C@@H](OC(=O)/C=C(\C)CC)[C@H](O)[C@@H](O)[C@@H]1OC(=O)/C(C)=C\C`, for which, in the assay on RAW264.7 [2], the IC50 is 8.4 µM. Further, the inhibition entry in the assay on RAW264.7 [1] is “Active”.
Taken in the same sequence, the figures for `C/C=C(/C)C(=O)O[C@H]1[C@H](O)[C@@H](O)[C@H](OC(=O)/C(C)=C\C)[C@H](OC(=O)/C(C)=C\C)[C@H]1O` were 8.9 µM and “Active”.
On to `C/C=C(/C)C(=O)O[C@@H]1[C@@H](O)[C@H](OC(=O)/C(C)=C\C)[C@@H](OC(=O)/C(C)=C\C)[C@H](O)[C@@H]1O`, for which the IC50 in the assay with RAW264.7 [2] turned out to be 23.4 µM. For the same compound, in the assay with RAW264.7 [1], the inhibition at 10 µM stood at 37.4%.
As for `C/C=C(/C)C(=O)O[C@H]1[C@H](OC(=O)/C(C)=C\C)[C@H](OC(=O)/C(C)=C\C)[C@@H](O)[C@@H](OC(=O)/C(C)=C\C)[C@@H]1O`, the IC50 in the assay on RAW264.7 [2] is 9.9 µM. In addition, in the assay on RAW264.7 [1], the inhibition at 10 µM stood at 59.6%.
`C/C=C(/C)C(=O)O[C@H]1[C@H](O)[C@H](O)[C@H](OC(=O)/C=C(\C)CC)[C@@H](O)[C@@H]1OC(=O)/C(C)=C\C`: the inhibition entry with RAW264.7 [1] was “Active”.
`C/C=C(/C)C(=O)O[C@@H]1[C@@H](O)[C@H](OC(=O)/C(C)=C\C)[C@@H](OC(=O)/C(C)=C\C)[C@H](O)[C@@H]1OC(=O)C(C)C`: the IC50 in the assay with RAW264.7 [2] came out at 7.6 µM. Also, in the assay with RAW264.7 [1], the inhibition at 10 µM came out at 47.2%.
Taken in the same sequence, the figures for `Cc1ccc(-c2cc(C(F)(F)F)nn2-c2ccc(S(N)(=O)=O)cc2)cc1` [CELECOXIB] were 1.6 µM and 59.2%.
Consider `C/C=C(/C)C(=O)O[C@@H]1[C@@H](O)[C@H](OC(=O)/C(C)=C\C)[C@@H](OC(=O)/C(C)=C\C)[C@@H](OC(=O)/C(C)=C\C)[C@H]1O`, for which the IC50 in the assay on RAW264.7 [2] was determined as 19 µM. In addition, in the assay with RAW264.7 [1], the inhibition at 10 µM is 47.9%.
With `C/C=C(/C)C(=O)O[C@H]1[C@@H](O)[C@@H](OC(C)=O)[C@H](OC(=O)/C(C)=C\C)[C@@H](OC(=O)/C(C)=C\C)[C@@H]1O`, the inhibition at 10 µM in the assay on RAW264.7 [1] was 38.3%.
For the compound `C/C=C(/C)C(=O)O[C@@H]1[C@@H](O)[C@H](OC(=O)/C(C)=C\C)[C@@H](OC(=O)/C(C)=C\C)[C@H](O)[C@@H]1OC(C)=O`, the IC50 with RAW264.7 [2] was determined as 9.6 µM. In the assay on RAW264.7 [1], the inhibition result was “Active”.
Regarding `C/C=C(/C)C(=O)O[C@@H]1[C@@H](O)[C@@H](OC(=O)/C(C)=C\C)[C@@H](OC(=O)/C(C)=C\C)[C@H](O)[C@H]1OC(=O)/C(C)=C\C`, in the assay with RAW264.7 [2], the IC50 is 9.8 µM. Also, the inhibition at 10 µM in the assay on RAW264.7 [1] is 42.1%.
Taken in the same sequence, the figures for `C/C=C(/C)C(=O)O[C@@H]1[C@@H](O)[C@H](OC(=O)/C(C)=C\C)[C@H](OC(=O)/C(C)=C\C)[C@@H](O)[C@H]1OC(=O)/C(C)=C\C` were 7 µM and 39.7%.
`C/C=C(/C)C(=O)O[C@@H]1[C@H](OC(C)=O)[C@@H](OC(C)=O)[C@@H](OC(=O)/C(C)=C\C)[C@H](O)[C@H]1OC(=O)/C(C)=C\C`: the IC50 in the assay on RAW264.7 [2] stood at 7.1 µM. Besides, the inhibition entry in the assay on RAW264.7 [1] was “Active”.
With `C/C=C(/C)C(=O)O[C@@H]1[C@H](O)[C@@H](OC(C)=O)[C@@H](OC(=O)/C(C)=C\C)[C@H](OC(=O)/C(C)=C\C)[C@H]1O`, the IC50 in the assay with RAW264.7 [2] is 11.9 µM. For the same compound, the inhibition at 10 µM with RAW264.7 [1] was found to be 43.4%.
